Data as given in US8067620B2, “Dispiro 1,2,4-trioxolane antimalarials” (Medicines for Malaria Venture MMV, priority 2005, dated 2011).

Experiments:
[1] = test system: ANKA strain of P. berghei; assay: Single dose in vivo screen in P. berghei-infected NMRI mice; settings: for Survival (days) 30 mg/kg SSV po / Activity (%) 30 mg/kg SSV po: single 30 mg/kg po dose in SSV one day post-infection; for Activity (%) 30 mg/kg SSV po: percent reduction in parasitemia on day three post-infection; for Cures 30 mg/kg SSV po: single 30 mg/kg po dose in SSV, cure = survival to day 30 post-infection, groups of five mice
Procedure: Activity of 1,2,4-trioxolanes against P. berghei in vivo. In the single dose in vivo screen, NMRI mice infected with the ANKA strain of P. berghei (groups of five mice) were treated one day post-infection with trioxolanes dissolved or suspended in standard suspending vehicle (SSV). The SSV consists of either 0.5% w/v carboxymethyl cellulose, 0.5% v/v benzyl alcohol, 0.4% v/v Tween 80, and 0.9% w/v sodium chloride in water or 0.5% hydroxypropylmethylcellulose 0.4% v/s Tween 80, and 0.5% v/v benzyl alcohol in water. […] Antimalarial activity was measured by percent reduction in parasitemia on day three post-infection and survival times compared to an untreated control group. Survival to day 30 post-infection is considered to be a cure in this model.

P. berghei = assay: Prophylactic activity against P. berghei in vivo (mice dosed before infection); settings: for Cures 24 h prior to infection (30 mg/kg) / Activity (%) 24 h prior to infection (30 mg/kg): single 30 mg/kg oral dose 24 h prior to infection; for Cures 24 h prior to infection (30 mg/kg) / Cures 48 h prior to infection (100 mg/kg) / Cures 72 h prior to infection (100 mg/kg) / Cures 96 h prior to infection (100 mg/kg): n=5 mice; for Activity (%) 24 h prior to infection (30 mg/kg) / Activity (%) 48 h prior to infection (100 mg/kg): parasitemia day 3 post-infection; for Cures 48 h prior to infection (100 mg/kg) / Activity (%) 48 h prior to infection (100 mg/kg): single 100 mg/kg oral dose 48 h prior to infection; for Activity (%) 72 h prior to infection (100 mg/kg) / Cures 72 h prior to infection (100 mg/kg): single 100 mg/kg oral dose 72 h prior to infection; for Activity (%) 96 h prior to infection (100 mg/kg) / Cures 96 h prior to infection (100 mg/kg): single 100 mg/kg oral dose 96 h prior to infection
Procedure: All groups (n=5 mice per group) including an untreated control group, were infected at the same time and parasitemia was determined for each animal on day 3 post-infection and compared with the level of parasitemia in control animals.

[2] = test system: Embryonic red blood cells (RBCs); assay: Rat whole embryo culture (WEC) model, embryotoxicity
Excerpt: Embryonic red blood cells (RBCs) were the primary target leading to anemia and subsequent hypoxia in embryonic tissues.
Longo, M.; Zanoncelli, S.; Manera, D.; Brughera, M.; Colombo, P.; Lansen J.; Mazué, G.; Gomes, M.; Taylor W. R. J.; Olliaro, P. Effects of the Antimalarial Drug Dihydroartemisinin (DHA) on Rat Embryos In Vitro. Repro. Tox. 2006, 21, 83-93.

[3] = Blood stability studies in freshly collected rat blood; format: in vitro ADME; set-up: unit not given here
Procedure: Blood stability studies: Compounds were incubated at 37° C. in freshly collected rat blood. At selected time points, duplicate aliquots of the whole blood were sampled, centrifuged and the plasma assayed for parent compound by LC-MS.

[4] = Pharmacokinetic studies in rats (oral); format: in vivo, rat; settings: oral 10 mg/kg; for Oral Bioavailability at 10 mg/kg (%): relative to an IV dose
Procedure: Pharmacokinetic studies in rats: Compounds were administered orally to rats (n=2) at a dose of 10 mg/kg in a suspension formulation containing hydroxypropylmethyl cellulose, Tween 80, benzyl alcohol, and water. […] Oral bioavailability for each compound was calculated relative to an IV dose for each compound in a suitable vehicle.

Structure (SMILES) | Survival (days) 30 mg/kg SSV po [1] [days] | Activity (%) 30 mg/kg SSV po [1] [%] | Cures 30 mg/kg SSV po [1] | Cures 24 h prior to infection (30 mg/kg) (P. berghei) | Activity (%) 24 h prior to infection (30 mg/kg) (P. berghei) [%] | Cures 48 h prior to infection (100 mg/kg) (P. berghei) | Activity (%) 48 h prior to infection (100 mg/kg) (P. berghei) [%] | Stability in Rat Blood (t1/2) at 37° C. [3] | Oral Bioavailability at 10 mg/kg (%) [4] [%] | also measured
CS(=O)(=O)O.c1cc(C2CCC3(CC2)OOC2(O3)C3CC4CC(C3)CC2C4)ccc1OCCN1CCSCC1 (stereo not shown) [OZ460] | 25.0 | 99 | 3/5 | 3/5 | 99.8 | 5/5 | 99.6 | – | – | –
CC(C)(O)CNCCCOc1ccc([C@H]2CC[C@]3(CC2)OOC2(O3)C3CC4CC(C3)CC2C4)cc1.Cc1ccc(S(=O)(=O)O)cc1 (stereo partly shown) [OZ505] | – | – | – | 2/5 | >99.9 | 5/5 | 99.5 | – | – | –
C[C@H]1[C@@H](O)O[C@@H]2O[C@@]3(C)CC[C@H]4[C@H](C)CC[C@@H]1[C@@]24OO3 [dihydroartemisinin] | – | – | – | – | – | – | – | – | – | NOAEL for embryonic RBCs [2]: 0.01 µg/mL
CS(=O)(=O)O.c1cc([C@H]2CC[C@]3(CC2)OOC2(O3)C3CC4CC(C3)CC2C4)ccc1OC1CCNCC1 (stereo partly shown) [OZ429] | 27.8 | 99.97 | 4/5 | 2/5 | 99.8 | 5/5 | 99.8 | 5.5 | 73 | In Vivo Oral t1/2 at 10 mg/kg [4]: 5.3 h
Cc1ccc(S(=O)(=O)O)cc1.O[C@H]1CC[C@H](NCCCOc2ccc([C@H]3CC[C@]4(CC3)OOC3(O4)C4CC5CC(C4)CC3C5)cc2)CC1 (stereo partly shown) [OZ535] | – | – | – | 0/5 | >99.9 | 5/5 | >99.9 | – | – | –
NCCOc1ccc([C@H]2CC[C@]3(CC2)OO[C@]2(O3)C3CC4CC(C3)CC2C4)cc1 [OZ323, reference compound] | – | – | – | 0/5 | 99.7 | 5/5 | 99.5 | 7.7 | 100 | Activity (%) 72 h prior to infection (100 mg/kg) (P. berghei): >99.9%; Cures 72 h prior to infection (100 mg/kg) (P. berghei): 1/5; Activity (%) 96 h prior to infection (100 mg/kg) (P. berghei): 90%; Cures 96 h prior to infection (100 mg/kg) (P. berghei): 0/5; In Vivo Oral t1/2 at 10 mg/kg [4]: 5.2 h
NC[C@H]1CC[C@]2(CC1)OOC1(O2)C2CC3CC(C2)CC1C3 (stereo partly shown) [OZ209, reference compound] | – | – | – | – | – | – | – | 0.8 | 12 | In Vivo Oral t1/2 at 10 mg/kg [4]: 1.2 h
CS(=O)(=O)O.c1cc([C@H]2CC[C@]3(CC2)OOC2(O3)C3CC4CC(C3)CC2C4)ccc1OCCCN1CCOCC1 (stereo partly shown) [OZ461] | – | – | – | 5/5 | 99.9 | 5/5 | 99.7 | – | 71 | Activity (%) 72 h prior to infection (100 mg/kg) (P. berghei): 99.6%; Cures 72 h prior to infection (100 mg/kg) (P. berghei): 5/5; Activity (%) 96 h prior to infection (100 mg/kg) (P. berghei): 99.4%; Cures 96 h prior to infection (100 mg/kg) (P. berghei): 4/5
C[C@H]1[C@H](OC(=O)CCC(=O)O)O[C@@H]2O[C@@]3(C)CC[C@H]4[C@H](C)CC[C@@H]1[C@@]24OO3 [AS, artesunate, reference compound] | 9.0 | 92 | 0/5 | 0/5 | 21 | 0/5 | 0 | – | – | –
CS(=O)(=O)O.c1cc(C2CCC3(CC2)OOC2(O3)C3CC4CC(C3)CC2C4)ccc1OCCN1CCOCC1 (stereo not shown) [OZ439] | – | – | – | 5/5 | 99.8 | 5/5 | 99.6 | – | 94 | Activity (%) 72 h prior to infection (100 mg/kg) (P. berghei): 99.6%; Cures 72 h prior to infection (100 mg/kg) (P. berghei): 5/5; Activity (%) 96 h prior to infection (100 mg/kg) (P. berghei): 99.5%; Cures 96 h prior to infection (100 mg/kg) (P. berghei): 5/5; NOAEL for embryonic RBCs [2]: 5 µg/mL
CS(=O)(=O)O.NC1CCC(Oc2ccc(C3CCC4(CC3)OOC3(O4)C4CC5CC(C4)CC3C5)cc2)CC1 (stereo not shown) [OZ537] | – | – | – | 5/5 | >99.9 | 5/5 | >99.9 | >17 | – | In Vivo Oral t1/2 at 10 mg/kg ([4]; 10 mg/kg): 11.8 h; Oral Bioavailability at 10 mg/kg (%) ([4]; 10 mg/kg): 29%
CC(C)(CN)Oc1ccc(C2CCC3(CC2)OOC2(O3)C3CC4CC(C3)CC2C4)cc1.CS(=O)(=O)O (stereo not shown) [OZ453] | – | – | – | 0/5 | 99.9 | 5/5 | 99.7 | 6.1 | – | –
O[C@H]1CC[C@@H](C2CCC3(CC2)OOC2(O3)C3CC4CC(C3)CC2C4)CC1 (stereo partly shown) [OZ508] | 24.4 | 99.8 | 3/5 | 4/5 | 99.7 | 4/5 | 99.8 | – | – | –
CS(=O)(=O)N1CCN(CCOc2ccc([C@H]3CC[C@]4(CC3)OOC3(O4)C4CC5CC(C4)CC3C5)cc2)CC1.CS(=O)(=O)O (stereo partly shown) [OZ485] | – | – | – | 3/5 | >99.9 | 5/5 | >99.9 | – | – | –
O=C1CCC([C@H]2CC[C@]3(CC2)OOC2(O3)C3CC4CC(C3)CC2C4)CC1 (stereo partly shown) [OZ495] | 26.8 | 99.3 | 3/5 | 1/5 | >99.9 | 0/5 | >99.9 | – | – | –
CS(=O)(=O)N1CCN(CCCOc2ccc([C@H]3CC[C@]4(CC3)OOC3(O4)C4CC5CC(C4)CC3C5)cc2)CC1.Cc1ccc(S(=O)(=O)O)cc1 (stereo partly shown) [OZ482] | – | – | – | 3/5 | >99.9 | 5/5 | >99.9 | >17 | 100 | Activity (%) 72 h prior to infection (100 mg/kg) (P. berghei): 99.6%; Cures 72 h prior to infection (100 mg/kg) (P. berghei): 4/5; Activity (%) 96 h prior to infection (100 mg/kg) (P. berghei): 99.6%; Cures 96 h prior to infection (100 mg/kg) (P. berghei): 3/5; In Vivo Oral t1/2 at 10 mg/kg [4]: 9.6 h
OC1CCN(CCOc2ccc([C@H]3CC[C@]4(CC3)OOC3(O4)C4CC5CC(C4)CC3C5)cc2)CC1 (stereo partly shown) [OZ513] | – | – | – | 1/5 | 99.9 | 5/5 | 99.7 | – | – | –
CS(=O)(=O)O.NCCCCCOc1ccc(C2CCC3(CC2)OOC2(O3)C3CC4CC(C3)CC2C4)cc1 (stereo not shown) [OZ498] | – | – | – | 4/5 | 99.8 | 5/5 | 99.8 | – | – | –
C[C@@H]1CC[C@H]2[C@@H](C)C(=O)O[C@@H]3O[C@@]4(C)CC[C@@H]1[C@]32OO4 [artemisinin] | – | – | – | – | – | – | – | – | – | NOAEL for embryonic RBCs [2]: 0.1 µg/mL
CC(C)(N)CCOc1ccc(C2CCC3(CC2)OOC2(O3)C3CC4CC(C3)CC2C4)cc1.Cc1ccc(S(=O)(=O)O)cc1 (stereo not shown) [OZ539] | 25.2 | 99.7 | 3/5 | 4/5 | >99.9 | 5/5 | >99.9 | – | – | Malaria-curative with a single dose ([1]; single dose, dose not stated): malaria-curative in some instances with a single dose
